Data published in ChEMBL document CHEMBL1201862, “PubChem BioAssay data set” (2004).
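Compound exposure: 48 hours, 5 concentrations, 96-well plates. The concentration for 50% growth inhibition is given as GI50.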 Active and inactive are the calls of the source. No stated cut-off is given here; in the data, active = GI50 up to about 1.1 µM and inactive = higher.

Assays:
Assay in all cases: NCI tumour cell line growth inhibition, 48 h
UACC-62 = test system: UACC-62
A549 = test system: A549
MDA-MB-435 = test system: MDA-MB-435
UO-31 = test system: UO-31
SNB-75 = test system: SNB-75
EKVX = test system: EKVX
SK-MEL-2 = test system: SK-MEL-2
Malme-3M = test system: Malme-3M
SF-295 = test system: SF-295
SK-MEL-28 = test system: SK-MEL-28
HCC 2998 = test system: HCC 2998
786-0 = test system: 786-0
SW-620 = test system: SW-620
COLO 205 = test system: COLO 205
SF-539 = test system: SF-539
Hs-578T = test system: Hs-578T
TK-10 = test system: TK-10
A498 = test system: A498
LOX IMVI = test system: LOX IMVI
HOP-92 = test system: HOP-92
T47D = test system: T47D
UACC-257 = test system: UACC-257
CAKI-1 = test system: CAKI-1
NCI-H23 = test system: NCI-H23
IGROV-1 = test system: IGROV-1
OVCAR-4 = test system: OVCAR-4
NCI/ADR-RES = test system: NCI/ADR-RES
K562 = test system: K562
KM12 = test system: KM12
SF-268 = test system: SF-268
OVCAR-5 = test system: OVCAR-5
HOP-62 = test system: HOP-62
PC-3 = test system: PC-3
SK-OV-3 = test system: SK-OV-3
HCT-15 = test system: HCT-15
SK-MEL-5 = test system: SK-MEL-5
M14 = test system: M14
DU-145 = test system: DU-145
ACHN = test system: ACHN
MDA-N = test system: MDA-N
HT-29 = test system: HT-29
HCT-116 = test system: HCT-116
OVCAR-3 = test system: OVCAR-3
MDA-MB-231 = test system: MDA-MB-231
NCI-H226 = test system: NCI-H226
SR = test system: SR
NCI-H460 = test system: NCI-H460
MCF7 = test system: MCF7
SNB-19 = test system: SNB-19
NCI-H522 = test system: NCI-H522
SN12C = test system: SN12C
RXF 393 = test system: RXF 393
OVCAR-8 = test system: OVCAR-8
U-251 = test system: U-251
CCRF-CEM = test system: CCRF-CEM
MOLT-4 = test system: MOLT-4

In the case of `O=C(CCc1ccc(O)cc1)c1c(O)cc(O)cc1OC1OC(CO)C(O)C(O)C1O` (configuration not stated), the GI50 (UACC-62) is reported as > 100 µM (inactive), the GI50 (A549) is reported as > 100 µM (inactive) and the GI50 (MDA-MB-435) is reported as > 100 µM (inactive). The GI50 (UO-31) was > 100 µM (inactive), the GI50 (SNB-75) was > 100 µM (inactive) and the GI50 (EKVX) was > 100 µM (inactive). The GI50 (SK-MEL-2) was > 100 µM (inactive), the GI50 (Malme-3M) was > 100 µM (inactive) and the GI50 (SF-295) was > 100 µM (inactive). The GI50 (SK-MEL-28) was > 100 µM (inactive), the GI50 (HCC 2998) was > 100 µM (inactive) and the GI50 (786-0) was > 100 µM (inactive). The GI50 (SW-620) was > 100 µM (inactive), the GI50 (COLO 205) was > 100 µM (inactive) and the GI50 (SF-539) was > 100 µM (inactive). The GI50 (Hs-578T) was > 100 µM (inactive), the GI50 (TK-10) was > 100 µM (inactive) and the GI50 (A498) was > 100 µM (inactive). The GI50 (LOX IMVI) was > 100 µM (inactive), the GI50 (HOP-92) was > 100 µM (inactive) and the GI50 (T47D) was > 100 µM (inactive). The GI50 (UACC-257) was > 100 µM (inactive), the GI50 (CAKI-1) was > 100 µM (inactive) and the GI50 (NCI-H23) was > 100 µM (inactive). The GI50 (IGROV-1) was > 100 µM (inactive), the GI50 (OVCAR-4) was > 100 µM (inactive) and the GI50 (NCI/ADR-RES) was > 100 µM (inactive). The GI50 (K562) was > 100 µM (inactive), the GI50 (KM12) was > 100 µM (inactive) and the GI50 (SF-268) was > 100 µM (inactive). The GI50 (OVCAR-5) was > 100 µM (inactive), the GI50 (HOP-62) was > 100 µM (inactive) and the GI50 (PC-3) was > 100 µM (inactive). For the same compound, the GI50 (SK-OV-3) was > 100 µM (inactive), the GI50 (HCT-15) was > 100 µM and the GI50 (SK-MEL-5) was > 100 µM (inactive). The GI50 (M14) was > 100 µM (inactive), the GI50 (DU-145) was > 100 µM (inactive) and the GI50 (ACHN) was > 100 µM (inactive). For the same compound, the GI50 (MDA-N) was > 100 µM (inactive), the GI50 (HT-29) was > 100 µM (inactive) and the GI50 (HCT-116) was > 100 µM (inactive). For the same compound, the GI50 (OVCAR-3) was > 100 µM (inactive).
`O=C1/C(=N/c2ccccc2)Oc2cc(O)ccc21` was tested, and the GI50 (UACC-62) was > 100 µM (inactive), the GI50 (MDA-MB-231) was > 100 µM (inactive) and the GI50 (A549) was > 100 µM (inactive). The GI50 (MDA-MB-435) was > 100 µM (inactive), the GI50 (NCI-H226) was > 100 µM (inactive) and the GI50 (UO-31) was > 100 µM (inactive). The GI50 (SNB-75) was > 100 µM (inactive), the GI50 (SR) was > 100 µM (inactive) and the GI50 (NCI-H460) was > 100 µM (inactive). The GI50 (EKVX) was > 100 µM (inactive), the GI50 (SK-MEL-2) was > 100 µM (inactive) and the GI50 (Malme-3M) was > 100 µM (inactive). For the same compound, the GI50 (MCF7) was 56.4 µM (inactive), the GI50 (SF-295) was > 100 µM (inactive) and the GI50 (SK-MEL-28) was > 100 µM (inactive). The GI50 (HCC 2998) was > 100 µM (inactive), the GI50 (786-0) was > 100 µM (inactive) and the GI50 (SW-620) was > 100 µM (inactive). For the same compound, the GI50 (COLO 205) was > 100 µM (inactive), the GI50 (SNB-19) was > 100 µM (inactive) and the GI50 (SF-539) was > 100 µM (inactive). For the same compound, the GI50 (NCI-H522) was > 100 µM (inactive), the GI50 (TK-10) was > 100 µM (inactive) and the GI50 (A498) was > 100 µM (inactive). The GI50 (LOX IMVI) was > 100 µM (inactive), the GI50 (T47D) was > 100 µM (inactive) and the GI50 (UACC-257) was > 100 µM (inactive). For the same compound, the GI50 (CAKI-1) was > 100 µM (inactive), the GI50 (SN12C) was > 100 µM (inactive) and the GI50 (NCI-H23) was > 100 µM (inactive). The GI50 (RXF 393) was > 100 µM (inactive), the GI50 (IGROV-1) was > 100 µM (inactive) and the GI50 (OVCAR-8) was > 100 µM (inactive). For the same compound, the GI50 (U-251) was > 100 µM (inactive), the GI50 (OVCAR-4) was > 100 µM (inactive) and the GI50 (NCI/ADR-RES) was > 100 µM (inactive). For the same compound, the GI50 (CCRF-CEM) was > 100 µM (inactive), the GI50 (K562) was > 100 µM (inactive) and the GI50 (KM12) was > 100 µM (inactive). The GI50 (SF-268) was > 100 µM (inactive), the GI50 (OVCAR-5) was > 100 µM (inactive) and the GI50 (HOP-62) was > 100 µM (inactive). For the same compound, the GI50 (PC-3) was > 100 µM (inactive), the GI50 (SK-OV-3) was > 100 µM (inactive) and the GI50 (HCT-15) was > 100 µM. The GI50 (SK-MEL-5) was > 100 µM (inactive), the GI50 (M14) was > 100 µM (inactive) and the GI50 (DU-145) was > 100 µM (inactive). For the same compound, the GI50 (ACHN) was > 100 µM (inactive), the GI50 (MDA-N) was > 100 µM (inactive) and the GI50 (HT-29) was > 100 µM (inactive). The GI50 (MOLT-4) was > 100 µM (inactive), the GI50 (HCT-116) was > 100 µM (inactive) and the GI50 (OVCAR-3) was > 100 µM (inactive).
